Earlier results as cited in patent publication US20190282525A1, “TIOPRONIN ORAL COMPOSITION” (CRONUS RESEARCH LABS PRIVATE LIMITED, priority 2018, published 2019).

Details: 'might be expected'

CC(S)C(=O)NCC(=O)O (stereo not drawn) [tiopronin, α-mercaptopropionylglycine]
reduction in urinary cystine (tiopronin dosage of 1 g/day): 250 to 350 mg/day | decline in urinary cystine (tiopronin dosage of 2 g/day): approximately 500 mg/day
